We go through four compounds from patent US20070208031A1, “Substituted Diketopiperazines as Oxytocin Antagonists” (priority 2004, published 2007).

In data set [1] the target is T1, recombinant human Oxytocin-1 (hOT) receptor (Homo sapiens, UniProt P30559).
T1 construct: expressed in transfected cells
T1 sequence (P30559 1-389): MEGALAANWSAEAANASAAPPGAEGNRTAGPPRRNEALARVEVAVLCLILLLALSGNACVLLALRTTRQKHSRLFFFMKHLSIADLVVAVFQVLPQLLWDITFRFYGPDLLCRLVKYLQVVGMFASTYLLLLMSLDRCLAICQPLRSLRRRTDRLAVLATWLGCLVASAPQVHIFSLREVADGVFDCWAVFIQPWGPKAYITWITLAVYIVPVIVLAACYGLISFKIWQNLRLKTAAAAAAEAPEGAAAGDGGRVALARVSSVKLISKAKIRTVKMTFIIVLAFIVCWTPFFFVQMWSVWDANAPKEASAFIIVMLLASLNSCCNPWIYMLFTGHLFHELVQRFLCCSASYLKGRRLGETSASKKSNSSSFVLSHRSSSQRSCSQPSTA
Kind of data set: Determination of antagonist affinity at human Oxytocin-1 receptors using FLIPR (Assay 1). The class given is cell-based. To be noted: CHO-hOT cells, FLIPR calcium response, oxytocin at EC80; read-out: fpki (Assay 1). As to the method:
Determination of Antagonist Affinity at Human Oxytocin-1 Receptors using FLIPR
Adherent Chinese Hamster Ovary (CHO) cells, stably expressing the recombinant human Oxytocin-1 (hOT) receptor, were maintained in culture in DMEM:F12 medium (Sigma, cat no D6421), supplemented with 10% heat inactivated foetal calf serum (Gibco/lnvitrogen, cat. no.01000-147), 2 mM L-glutamine (Gibco/lnvitrogen, cat. no. 25030-024) and 0.2 mg/ml G418 (Gibco/lnvitrogen, cat no. 10131-027). Cells were grown as monolayers under 95%:5% air:CO2 at 37° C. and passaged every 3-4 days using TrypLE™ Express (Gibco/lnvitrogen, cat no. 12604-013).
Measurement of [Ca^2+]1 using the FLIPR™
CHO-hOT cells were seeded into black walled clear-base 384-well plates (Nunc) at a density of 10,000 cells per well in culture medium as described above and maintained overnight (95%:5% air:CO2 at 37° C.). After removal of culture medium, cells were incubated for 1 h at 37° C. in Tyrode's medium (NaCl, 145 mM; KCl, 2.5 mM; HEPES, 10 mM; Glucose, 10 mM; MgCl2, 1.2 mM; CaCl2, 1.5 mM) containing probenacid (0.7 mg/ml), the cytoplasmic calcium indicator, Fluo-4 (4 uM; Teflabs, USA) and the quenching agent Brilliant Black (250 uM; Molecular Devices, UK). Cells were then incubated for an additional 30min at 37° C. with either buffer alone or buffer containing OT antagonist, before being placed into a FLIPR™ (Molecular Devices, UK) to monitor cell fluorescence (λex=488 nm, λEM=540 nm) before and after the addition of a submaximal concentration of oxytocin (EC80).
Functional responses using FLIPR were analysed using Activity Base Version 5.0.10.

Data set [2] deals with T2, human recombinant oxytocin receptors (Homo sapiens, UniProt P30559).
T2 construct: expressed in transfected cells; host or cells: CHO cells (membrane preparation)
T2 sequence (P30559 1-389): T1 sequence (P30559 1-389)
Kind of data set: Oxytocin binding assay, [3H]-oxytocin competition on CHO membranes (Assay 2). Conditions: ~2.4 nM [3H]-oxytocin, Cheng-Prusoff, read-out: pKi (Assay 2) (converted). Here is the method: Membranes were prepared from CHO cells expressing human recombinant oxytocin receptors. The membrane preparation was frozen in aliquots at −70° C. until used.
Membranes (˜50 ug) were incubated in 200 ul of assay buffer (50 mM Tris, 10 mM MgCl2, and 0.1% bovine serum albumin, pH 7.5) containing ˜2.4 nM of [3H]-oxytocin in the absence (total binding) or presence (non-specific binding) of 1 uM unlabeled oxytocin and increasing concentrations of the compounds in Examples 1 and 2 or comparator compounds. Incubations were performed at room temperature for 60 minutes. The reactions were stopped with 3 ml of ice cold buffer and filtered through Whatman GF/C filter paper presoaked in 0.3% polyethylenimine. The filters were washed 4 times with 3 ml buffer using a Brandel cell harvester. The filters were counted in 3 ml Ready Safe scintillation fluid (Beckman).
Specific binding represented approximately 90% of total binding.
IC50 values were determined from competition binding experiments using non-linear regression analysis (GraphPad) and converted to Ki using the method of Cheng and Prusoff, 1974. Data are reported as mean values.

Data set [3] in a line: In vitro intrinsic clearance in microsomes (Assay 3), rat. The format is in vitro ADME. Conditions: pH 7.4; heading: Assay 3 - Microsomal Cl; rat female microsomes, 0.5 uM compound, 0.5 mg/mL protein. Here is the method: (§1) Determination of In Vitro Intrinsic Clearance in Microsomes
(§2) NADP regeneration buffer for use in incubations was prepared fresh on the assay day. It contained 7.8 mg glucose-6-phosphate (mono-sodium salt), 1.7 mg NADP and 6 Units glucose-6-phosphate dehydrogenase per 1 mL of 2% sodium bicarbonate. Microsomes (human, female; cynomolgus monkey, female; dog, female; rat, female) were prepared in pH 7.4 phosphate buffer and contained 0.625 mg protein/mL. Unless stated, all subsequent steps were performed by a Tecan Genesis 150/8 RSP. A 1.25 mM stock solution of the compounds was prepared in Acetonitrile/water (1:1). 25 ul of the 1.25 mM stock solution was added to 600 ul of Acetonitrile/water (1:1) to give a 50 uM solution. For each species, the 50 uM solutions (10 uL) were added to microsomes (790 uL) in a microplate (Porvair, 96 deepwell, square).
(§3) 400 uL of the microsomal solution containing the compound was transferred to a microplate (Porvair, 96 deepwell, round) and was pre-warmed at 37° C. for five minutes prior to initiation of incubations. All incubations were initiated by addition of 100 uL of NADP regeneration system to the pre-warmed microsomes. The mixtures were incubated at 37° C. in a Techne heating block. Following 0, 3, 6, 12 and 30 minutes incubation, 20 uL aliquots were taken and added to 100 uL of acetonitrile containing internal standard.
(§4) For determination of the rate of metabolism, incubations were performed at a compound concentration of 0.5 uM and a protein concentration of 0.5 mg/mL. The concentration of solvent in the incubation was 0.5%.
(§5) Test compound concentrations were determined by LC/MS/MS; results were reported as analyte:internal standard peak area ratios.
(§6) The rate of disappearance was calculated by fitting a single exponential decay to the concentration-time curve using Excel and intrinsic clearance was calculated using the following formula: [formula] Results

The nature of data set [4]: In vitro intrinsic clearance in microsomes (Assay 3), dog. To be noted: pH 7.4; heading: Assay 3 - Microsomal Cl; dog female microsomes, 0.5 uM compound, 0.5 mg/mL protein. The class given is in vitro ADME. Here is the method:
as §1, §2, §3, §4, §5, §6

A short description of data set [5]: In vitro intrinsic clearance in microsomes (Assay 3), cynomolgus monkey. The format is in vitro ADME. Conditions: pH 7.4; heading: Assay 3 - Microsomal Cl, Cyno; cynomolgus monkey female microsomes, 0.5 uM compound, 0.5 mg/mL protein. As to the method: as §1, §2, §3, §4, §5, §6
The nature of data set [6]: In vitro intrinsic clearance in microsomes (Assay 3), human. The format is in vitro ADME. Conditions: pH 7.4; heading: Assay 3 - Microsomal Cl; human female microsomes, 0.5 uM compound, 0.5 mg/mL protein. As to the method:
as §1, §2, §3, §4, §5, §6

Some results are limits rather than exact numbers.

Take `CC[C@H](C)[C@@H]1C(=O)N[C@H](C2Cc3ccccc3C2)C(=O)N1[C@@H](C(=O)N(C)C)c1ccc2c(cnn2C)c1` [Example 2, (2R)-2-{(3R,6R)-3-(2,3-Dihydro-1H-inden-2-yl)-6-[(1S)-1-methylpropyl]-2,5-dioxo-1-piperazinyl}-N,N-dimethyl-2-(1-methyl-1H-indazol-5-yl)ethanamide]: the results for the Ki in data set [1] and in data set [2] were 2 to 3.16 nM and 0.0398 to 0.126 nM, respectively. Besides, the microsomal CLint at 0.5 uM fell in the range of 1 to 8 mL/min/g in data set [3], 1 to 8 mL/min/g in data set [4], 9 to 15 mL/min/g in data set [5] and 1 to 8 mL/min/g in data set [6].
As for `CC(C)C[C@@H]1C(=O)N[C@H](C2Cc3ccccc3C2)C(=O)N1[C@@H](C(=O)N(C)C)c1ccc2[nH]ncc2c1` [Comparator compound X, (2R)-2-[(3R,6R)-3-(2,3-dihydro-1H-inden-2-yl)-6-isobutyl-2,5-dioxopiperazin-1-yl]-2-(1H-indazol-5-yl)-N,N-dimethylethanamide, reference compound], the microsomal CLint at 0.5 uM in data set [3] was 9 to 15 mL/min/g; in data set [4], 16 to 20 mL/min/g; in data set [5], > 31 mL/min/g; in data set [6], > 31 mL/min/g.
Regarding `CC(C)C[C@@H]1C(=O)N[C@H](C2Cc3ccccc3C2)C(=O)N1[C@@H](C(=O)N(C)C)c1ccc(F)cc1F` [Comparator compound Y, (2R)-2-(2,4-difluorophenyl)-2-[(3R,6R)-3-(2,3-dihydro-1H-inden-2-yl)-6-isobutyl-2,5-dioxopiperazin-1-yl]-N,N-dimethylethanamide, reference compound], the Ki was 2 to 3.16 nM in data set [1] and 0.0398 to 0.126 nM in data set [2]. For the same compound, the microsomal CLint at 0.5 uM was 1 to 8 mL/min/g in data set [3], 1 to 8 mL/min/g in data set [4], 21 to 30 mL/min/g in data set [5] and 16 to 20 mL/min/g in data set [6].
As for `CC[C@H](C)[C@@H]1C(=O)N[C@H](C2Cc3ccccc3C2)C(=O)N1[C@@H](C(=O)NC)c1ccc2c(cnn2C)c1` [Example 1, (2R)-2-{(3R,6R)-3-(2,3-Dihydro-1H-inden-2-yl)-6-[(1S)-1-methylpropyl]-2,5-dioxo-1-piperazinyl}-N-methyl-2-(1-methyl-1H-indazol-5-yl)ethanamide], the Ki in data set [1] is 2 to 3.16 nM; in data set [2], 0.0398 to 0.126 nM. Moreover, the microsomal CLint at 0.5 uM in data set [3] fell in the range of 1 to 8 mL/min/g; in data set [4], 1 to 8 mL/min/g; in data set [5] it was 9 to 15 mL/min/g; in data set [6], 1 to 8 mL/min/g.
